How the values were obtained:
angiotensin II receptor = target: T1, angiotensin II receptor (Rattus norvegicus, UniProt P25095); test: Test on the angiotensin II receptor (displacement of I^125 angiotensin II on rat liver membrane preparation); assay type: binding; conditions: 25° C., 150 minutes, pH 7.4, read-out: IC50 (50% inhibiting concentration, displacement of specific radioactivity fixed on the receptor)
T1 construct: A fresh membrane preparation obtained from the liver of a rat was used; from tissue; host or cells: rat liver membranes
T1 sequence (P25095 1-359): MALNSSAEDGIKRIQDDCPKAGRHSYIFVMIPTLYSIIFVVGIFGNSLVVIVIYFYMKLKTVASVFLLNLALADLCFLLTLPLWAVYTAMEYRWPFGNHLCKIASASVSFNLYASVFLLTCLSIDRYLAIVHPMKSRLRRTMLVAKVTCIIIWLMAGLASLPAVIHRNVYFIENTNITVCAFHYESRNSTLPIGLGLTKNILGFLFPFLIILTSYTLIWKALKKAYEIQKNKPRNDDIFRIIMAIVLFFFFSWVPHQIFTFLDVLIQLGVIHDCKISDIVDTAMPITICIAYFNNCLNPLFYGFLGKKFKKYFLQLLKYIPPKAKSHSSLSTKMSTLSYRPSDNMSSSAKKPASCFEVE
Experimental: A fresh membrane preparation obtained from the liver of a rat was used and the tissue was ground up in a polytron in a Tris 50 mM buffer pH 7.4. The grinding was followed by 3 centrifugations at 30,000 g for 15 minutes and the deposits were taken up in between in the Tris buffer pH 7.4. The last deposits were suspended in an incubation buffer (Tris 20 mM, NaCl 135 mM, KCl 10 mM, glucose 5 mM, MgCl2 10 mM PMSF 0.3 mM, bacitracin 0.1 mM, BSA 0.2%) The aliquoted fractions of 2 ml were divided into hemolysis tubes and I^125 angiotensin II (25,000 DPM per tube) and the product to be studied were added. The product was first tested at 3×10^-5 M three times. When the tested product displaced by more than 50% the radioactivity linked specifically to the receptor, it was tested again according to a range of 7 concentrations to determine the concentration which inhibited by 50% the radioactivity linked specificaly to the receptor. In this way, the 50% inhibiting concentration was determined.
The non-specific bond was determined by addition of the product of Example 94 of European Patent No. 0,253,310, at 10^-5 M (three times). The medium was incubated at 25° C. for 150 minutes, put in a water bath at 0° C. for 5 minutes, filtered under vacuum, rinsed with Tris buffer pH 7.4 and the radioactivity was counted in the presence of scintillating Triton. The results were expressed directly as the 50% inhibiting concentration (IC50), that is as the concentration of studied product, expressed in nM, necessary to displace 50% of the specific radioactivity fixed on the receptor studied.

[1] = tested on: angiotensin II on the isolated portal vein; test: Antagonistic activity of angiotensin II on the isolated portal vein; assay type: cell-based, male Wistar rats; conditions: isolated rat portal vein, angiotensin II 3.10^-8 M, compound 15 minutes before stimulation, 37° C.; read-out: IC50 (concentration which produced a 50% inhibition of the response to angiotensin)
Experimental: The portal vein of male Wistar rats weighing about 350 g (IFFA Credo France) was removed after cervical dislocation and placed rapidly in a physiological solution (see below) at ambient temperature. A ring of about 1 mm was mounted in a bath having an isolated organ containing 20 ml of the following physiological solution (composition in mM: NaCl 118.3-KCl […]-MgSO4 1.2-KH2 PO4 1.2-NaHCO3 25-glucose 11.1-CaCl2 2.5). The medium was maintained at 37° C. and oxygenated with an O2 (95%), CO2 (5%) mixture. The initial pressure imposed was 1 g, the rings were left at rest for 60 to 90 minutes. To avoid spontaneous contractions, verapamil was added to the incubation bath (1.10^-6 M).
At the end of the rest period, angiotensin II (Ciba hypertensin) 3.10^-8 M was added to the incubation bath and left in contact with the preparation for 1 minute. This operation was repeated every 30 minutes with the tissue being washed 3 or 4 times between two stimulations by angiotensin. The compound to be studied was introduced into the bath 15 minutes before a new stimulation by angiotensin. From increasing concentrations of the molecule being applied, an IC50 (concentration which produced a 50% inhibition of the response to angiotensin) can be calculated, this being expressed in nanomoles.

Row | IC50 (angiotensin II receptor) | IC50 [1] | Structure (SMILES)
1 | 2350 nM | 3400 nM | CCCCc1nc2ccc(C(=O)O)cc2n1Cc1ccc(C(=O)O)cc1 [Example 2, 2-Butyl-1-((4-carboxyphenyl)-methyl)-1H-benzimidazol-6-carboxylic acid]
2 | 1440 nM | 3600 nM | CCCCc1nc2ccccc2n1Cc1ccc(C(=O)O)cc1 [Example 5, 4-((2-butyl-1H-benzimidazol-1-yl)-methyl) benzoic acid]
3 | 3460 nM |  | CCCCc1nc2ccccc2n1Cc1ccc(C(=O)Nc2cccc3[nH]ccc23)cc1 [Example 6, 4-((2-butyl-1H-benzimidazol-1-yl)-methyl)-N-(1H-indol-4-yl) benzamide]
4 | 2270 nM | 3280 nM | CCCCc1nc2cc3ccccc3cc2n1Cc1ccc(C(=O)O)cc1 [Example 10, 4-((2-butyl-1H-naphth(2,3-d)imidazol-1-yl)-methyl) benzoic acid]
5 | 3610 nM |  | CCCCc1nc2cc(C)c(C)cc2n1Cc1ccc(C(=O)O)cc1 [Example 15, 4-((2-butyl-5,6-dimethyl-1H-benzimidazol-1-yl)-methyl) benzoic acid]
6 | 2720 nM |  | CCCCc1nc2ccncc2n1Cc1ccc(C(=O)O)cc1 [Example 20, 4-((2-butyl-3H-imidazo(4,5-c)pyridin-3-yl)-methyl) benzoic acid]
7 |  | 830 nM | CCCCc1nc2cccnc2n1Cc1ccc(C(=O)O)cc1 [Example 25]
8 | 89 nM |  | CCCCc1nc2ncccc2n1Cc1ccc(-c2ccccc2C(=O)O)cc1 [Example 27, 4'-((2-butyl-1H-imidazo-(4,5-b)-pyridin-1-yl)-methyl)-(1,1'-biphenyl)-2-carboxylic acid]
9 | 789 nM |  | CCCCc1nc2cscc2n1Cc1ccc(-c2ccccc2C(=O)O)cc1 [Example 34, 4'-((2-butyl-1H-thieno-(3,4-d)-imidazol-1-yl)-methyl)-(1,1'-biphenyl)-2-carboxylic acid]
